Reference: publication PMC8677862, “Substrate binding modes of purine and pyrimidine nucleotides to human ecto-5′-nucleotidase (CD73) and inhibition by their bisphosphonic acid derivatives” (Purinergic Signalling, 2021)
Values joined by “and” are separate entries in the source; they are usually repeats but may differ in a detail not shown here. Equal entries are not always repeated. Structures can show the parent of a compound that is named as a salt. Where two headings read alike, the source gives them in different places. Each block holds one molecule with its values, some of them ahead of it.

Columns and labels:
CD73 [1] = biological target: T1, CD73 (Homo sapiens, UniProt P21589, K145S/K147S/K478S/N311D/N333D/N403D/N53D/T376A); test: Crystallographic fragment screening by crystal soaking, open form of CD73; format: binding
T1 construct: His6 (C); made in house
T1 sequence (P21589 27-549 N53D/K145S/K147S/N311D/N333D/T376A/N403D/K478S limits assumed): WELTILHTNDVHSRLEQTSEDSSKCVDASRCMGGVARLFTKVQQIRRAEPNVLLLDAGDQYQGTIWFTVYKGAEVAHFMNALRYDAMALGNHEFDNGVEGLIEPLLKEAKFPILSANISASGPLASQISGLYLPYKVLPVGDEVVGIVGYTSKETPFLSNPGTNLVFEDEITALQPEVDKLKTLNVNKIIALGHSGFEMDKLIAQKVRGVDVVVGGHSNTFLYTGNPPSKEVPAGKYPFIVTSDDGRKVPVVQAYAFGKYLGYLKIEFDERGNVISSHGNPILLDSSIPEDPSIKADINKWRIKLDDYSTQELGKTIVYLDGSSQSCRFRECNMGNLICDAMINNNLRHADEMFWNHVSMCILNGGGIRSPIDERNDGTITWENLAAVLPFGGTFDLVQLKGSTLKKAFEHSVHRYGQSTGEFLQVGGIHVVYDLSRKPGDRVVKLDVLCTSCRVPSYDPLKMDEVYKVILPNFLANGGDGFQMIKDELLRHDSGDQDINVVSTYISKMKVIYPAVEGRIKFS
Experimental: Purified CD73 was concentrated to 7 mg/mL, and hanging drop crystallizations were set up versus 100 mM Tris pH 7.8 and 10% PEG6000, using equal amounts of protein and reservoir solution. Crystallisation experiments were carried out at 19 °C. Following crystal formation (1–2 days), the crystals were transferred to soaking solution containing reservoir solution with additional commercially available nucleotides or fragments (see Table S1) at concentrations between 2 and 100 mM. Crystals were then transferred to cryo solution containing an additional 20% glycerol, soaked for ~ 2–5 min and flash frozen in liquid nitrogen.
X-ray data collection was carried out at 100 K using a wavelength of 0.91841 Å on beamline 14.1 of the Berlin Synchrotron (BESSY, Berlin, Germany) equipped with a PILATUS 6 M detector [43]. All datasets were indexed, integrated, scaled and converted to structure factor amplitudes using XDSAPP [44] and AIMLESS [45]. The crystals belong to crystal form II of CD73 (pdb id 4h1y), which was used as a starting model for refinement. Coot and REFMAC5 [47] were used for model building and refinement. The final structures were validated using PROCHECK [48] and outliers in the Ramachandran plot were checked manually.
The HZB fragment library used for this work contains 102 compounds [41]. […] The presence of 12 compounds containing a nucleoside moiety in the fragment library contributed to the high hit rate of 23.5%.

CD73 [2] = details: competitive inhibitor of CD73, cited from earlier work
CD73 [3] = biological target: T1, CD73; test: Michaelis–Menten kinetics of CD73-mediated AMP hydrolysis, malachite green assay; format: biochemical; details: AMP 5-200 μM, 1.25 ng CD73
Experimental: In this study, enzyme activity and inhibition data was characterised using a modified malachite green assay. Each assay consisted of reaction buffer A (50 mM Tris–HCl pH 7.5, 100 mM NaCl, 1 mM MgCl2) to which the appropriate substrate and/or inhibitors (see Table S1) were added. Dissolved compounds were immediately used for the inhibition assays. The reactions were generally initiated by the addition of protein. The protein concentrations, substrates and inhibitors used for the various experiments are detailed below. In all experiments, reactions were monitored over a 10-min period during which samples were taken at regular intervals. At each desired time point, a malachite green/molybdate (1:1) solution was added to the sample, which simultaneously terminated the assay and also allowed the detection of the produced phosphate ions. These reaction mixtures were incubated at 25 °C for 25 min, followed by measurement of the absorbance at 620 nm. […]
The specific activity (μmol Pi/min/mg protein) was calculated from the initial reaction rates and was used to determine when the protein refolding process had reached completion. […] Kinetic values were determined by fitting the Michaelis–Menten equation to the initial reaction rates using GraphPad Prism (GraphPad Software, La Jolla, CA, USA). […]

CD73 [4] = details: cited from earlier work; for Km: AMP as substrate; for specific activity: AMP; for turnover rate: substrate of CD73
rat CD73 [5] = details: cited from earlier work
[6] = set-up: method as in earlier work; details: last proton on the β-phosphonate group; cited from earlier work
CD73 [7] = biological target: T1, CD73; test: Substrate preference of CD73 for nucleoside monophosphates, malachite green assay; format: biochemical; details: 1 mM substrate; for percentage activity relative to AMP (100%): 1.25 ng CD73; for decrease in absolute activity (relative to AMP) compared with the ribonucleotide equivalent: deoxyribo form vs ribo form
Experimental: Each assay consisted of reaction buffer A (50 mM Tris–HCl pH 7.5, 100 mM NaCl, 1 mM MgCl2) to which the appropriate substrate and/or inhibitors (see Table S1) were added. Dissolved compounds were immediately used for the inhibition assays. The reactions were generally initiated by the addition of protein. The protein concentrations, substrates and inhibitors used for the various experiments are detailed below. In all experiments, reactions were monitored over a 10-min period during which samples were taken at regular intervals. At each desired time point, a malachite green/molybdate (1:1) solution was added to the sample, which simultaneously terminated the assay and also allowed the detection of the produced phosphate ions. These reaction mixtures were incubated at 25 °C for 25 min, followed by measurement of the absorbance at 620 nm. A standard curve (0–50 μM orthophosphate) was performed prior to each assay and was used to calculate the phosphate concentration. All measurements were carried out in triplicate. […] The specific activity (μmol Pi/min/mg protein) was calculated from the initial reaction rates and was used to determine when the protein refolding process had reached completion. […] Kinetic values were determined by fitting the Michaelis–Menten equation to the initial reaction rates using GraphPad Prism (GraphPad Software, La Jolla, CA, USA).

CD73 [8] = biological target: T1, CD73; test: CD73 inhibition, malachite green assay; format: biochemical
Experimental: In this study, enzyme activity and inhibition data was characterised using a modified malachite green assay. Each assay consisted of reaction buffer A (50 mM Tris–HCl pH 7.5, 100 mM NaCl, 1 mM MgCl2) to which the appropriate substrate and/or inhibitors (see Table S1) were added. Dissolved compounds were immediately used for the inhibition assays. The reactions were generally initiated by the addition of protein. The protein concentrations, substrates and inhibitors used for the various experiments are detailed below. In all experiments, reactions were monitored over a 10-min period during which samples were taken at regular intervals. At each desired time point, a malachite green/molybdate (1:1) solution was added to the sample, which simultaneously terminated the assay and also allowed the detection of the produced phosphate ions. These reaction mixtures were incubated at 25 °C for 25 min, followed by measurement of the absorbance at 620 nm. A standard curve (0–50 μM orthophosphate) was performed prior to each assay and was used to calculate the phosphate concentration. All measurements were carried out in triplicate.
To study the inhibition kinetics of CD73 against a panel of commercially available nucleotide-diphosphate analogues (AMPCP, GMPCP, dUMPCP and CMPCP; see Table S1), their IC50 values were determined. In these tests, CD73 protein (1.25 ng) was incubated in reaction buffer A containing various inhibitor concentrations (0.015, 0.031, 0.061, 0.12, 0.24, 0.49, 0.98, 1.95, 3.91, 7.81, 15.62, 31.25, 62.5, 125, 250 and 500 μM). […] Dose–response curves were plotted in GraphPad Prism (GraphPad Prism Software, La Jolla, CA, USA), and the inflection point of each curve was used to determine the IC50 value of each inhibitor. The IC50 values were then used to calculate the Ki value of each inhibitor using the Cheng-Prusoff equation [51].

rat CD73 [9] = test: Literature inhibition of rat CD73; format: biochemical; details: rat CD73, from literature Ki values
[10] = calculated from IC50 with the Cheng-Prusoff equation, human deglycosylated CD73 construct, read-out: Ki

- binding to the nucleoside binding site (crystal structure) (CD73 [1]): did bind to the nucleoside binding site
Compound: O=[N+]([O-])c1ccc(O)c(O)c1 [4-nitrocatechol]

- binding to the nucleoside binding site (crystal structure) (CD73 [1]): did bind to the nucleoside binding site
Compound: O=c1[nH]cc(I)c(=O)[nH]1 [5-iodouracil]

Compound: Nc1ncnc2c1ncn2[C@@H]1O[C@H](COP(=O)(O)OP(=O)(O)O)[C@@H](O)[C@H]1O [ADP]
- Ki (CD73 [2]; ref 29): 3880 nM
- Ki (CD73 [2]; ref 32): 82 nM
- Ki (CD73 [2]; ref 33): 910 nM

- Vmax (CD73 [3]): 301.2 ± 2.9 U/mg
Compound: Nc1ncnc2c1ncn2[C@@H]1O[C@H](COP(=O)(O)O)[C@@H](O)[C@H]1O [AMP, Adenosine 5'-monophosphate]
- Km (CD73 [4]; same construct after refolding): 6.6 µM and 7 µM
- Km (CD73 [4]; ref 8): 1 to 50 µM
- Km (CD73 [4]; ref 29): 59 µM
- specific activity (CD73 [4]; human CD73 purified from an adenocarcinoma cell line): 130 U/mg
- specific activity (CD73 [4]; this construct after refolding): 577.2 U/mg
- turnover rate (CD73 [4]): 856 nmol/min/mg

Compound: Nc1ncnc2c1ncn2[C@@H]1O[C@H](COP(=O)(O)CP(=O)(O)O)[C@@H](O)[C@H]1O [AMPCP, Adenosin 5'-[α,β-methylene] diphosphoric acid]
- Ki (rat CD73 [5]): 197 ± 5 nM
- pKa [6]: 8.3

Compound: Nc1ncnc2c1ncn2[C@@H]1O[C@H](COP(=O)(O)OP(=O)(O)OP(=O)(O)O)[C@@H](O)[C@H]1O [ATP]
- Ki (CD73 [2]; ref 32): 1500 nM
- Ki (CD73 [2]; ref 33): 8900 nM

- percentage activity relative to AMP (100%) (CD73 [7]): 73.4%
Compound: Nc1ccn([C@@H]2O[C@H](COP(=O)(O)O)[C@@H](O)[C@H]2O)c(=O)n1 [CMP, Cytidine 5′-monophosphate]

- Ki (CD73 [8]; [10]): 304 ± 5.8 nM
- ratio Ki (CMPCP)/Ki (AMPCP) (CD73 [8]; human CD73 construct of this work): 5.1
- IC50 (CD73 [8]; read-out: IC50): 3200 ± 20 nM
- ratio Ki (CMPCP)/Ki (AMPCP) (rat CD73 [9]): 4.6
Compound: Nc1ccn([C@@H]2O[C@H](COP(=O)(O)CP(=O)(O)O)[C@@H](O)[C@H]2O)c(=O)n1 [CMPCP, Cytidine-5'-[(α,β)-methyleno]diphosphate, Sodium salt]
- Ki (rat CD73 [5]): 898 ± 63 nM

- percentage activity relative to AMP (100%) (CD73 [7]): 33.2%
Compound: Nc1nc2c(ncn2[C@@H]2O[C@H](COP(=O)([O-])[O-])[C@@H](O)[C@H]2O)c(=O)[nH]1.[Na+].[Na+] [GMP, Guanosin-5'-monophosphat Dinatriumsalz]

Compound: Nc1nc2c(ncn2[C@@H]2O[C@H](COP(=O)(O)CP(=O)(O)O)[C@@H](O)[C@H]2O)c(=O)[nH]1 [GMPCP, α,β-Methyleneguanosine 5′-diphosphate sodium salt]
- IC50 (CD73 [8]): 1420 ± 20 nM
- Ki (CD73 [8]): 135 ± 2.7 nM

Compound: NC(=O)c1ccc[n+]([C@@H]2O[C@H](COP(=O)([O-])OP(=O)(O)OC[C@H]3O[C@@H](n4cnc5c(N)ncnc54)[C@H](O)[C@@H]3O)[C@@H](O)[C@H]2O)c1 [NAD^+]
- turnover rate (CD73 [4]): 5 nmol/min/mg

- percentage activity relative to AMP (100%) (CD73 [7]): 87.1%
Compound: O=c1ccn([C@@H]2O[C@H](COP(=O)([O-])[O-])[C@@H](O)[C@H]2O)c(=O)[nH]1.[Na+].[Na+] [UMP, Uridin-5'-Monophosphate Dinatriumsalz]

Compound: O=c1ccn([C@@H]2O[C@H](COP(=O)(O)CP(=O)(O)O)[C@@H](O)[C@H]2O)c(=O)[nH]1 [UMPCP]
- Ki (rat CD73 [5]): 1830 ± 530 nM

Compound: Cn1c(=O)c2c(ncn2C)n(C)c1=O [caffeine]
- binding to the nucleoside binding site (crystal structure) (CD73 [1]): did bind to the nucleoside binding site

- decrease in absolute activity (relative to AMP) compared with the ribonucleotide equivalent (CD73 [7]): 28.8%
Compound: Nc1ncnc2c1ncn2[C@H]1C[C@H](O)[C@@H](COP(=O)(O)O)O1 [dAMP, 2′-Deoxyadenosine 5′-monophosphate]

- percentage activity relative to AMP (100%) (CD73 [7]): 47.6%
Compound: Nc1ccn([C@H]2C[C@H](O)[C@@H](COP(=O)(O)O)O2)c(=O)n1 [dCMP, 2′-Deoxycytidine 5′-monophosphate]

- percentage activity relative to AMP (100%) (CD73 [7]): 4.8%
- decrease in absolute activity (relative to AMP) compared with the ribonucleotide equivalent (CD73 [7]): 28.4%
Compound: Nc1nc2c(ncn2[C@H]2C[C@H](O)[C@@H](COP(=O)(O)O)O2)c(=O)[nH]1 [dGMP, 2′-Deoxyguanosine 5′-monophosphate]

- percentage activity relative to AMP (100%) (CD73 [7]): 49.4%
- binding to the nucleoside binding site (crystal structure) (CD73 [1]): only low occupancy binding
Compound: Cc1cn([C@H]2C[C@H](O)[C@@H](COP(=O)([O-])[O-])O2)c(=O)[nH]c1=O.[Na+].[Na+] [dTMP, Thymidine 5'-Monophosphate Natriumsalz]

- Ki (CD73 [8]; [10]): 374 ± 6.9 nM
- loss in affinity (CD73 [8]; comparison between CMPCP and dUMPCP): 1.2 fold
- IC50 (CD73 [8]; read-out: IC50): 3940 ± 10 nM
Compound: O=c1ccn([C@H]2C[C@H](O)[C@@H](COP(=O)(O)CP(=O)(O)O)O2)c(=O)[nH]1 [dUMPCP, 2'-Deoxyuridine-5'-[(α,β)-methyleno]diphosphate, Sodium salt]

Compound: NC(=O)c1ccc[n+]([C@@H]2O[C@H](COP(=O)([O-])O)[C@@H](O)[C@H]2O)c1 [nicotinamide mononucleotide]
- turnover rate (CD73 [4]): 110 nmol/min/mg

- binding to the nucleoside binding site (crystal structure) (CD73 [1]): did bind to the nucleoside binding site
Compound: Cc1cc2nc3c(=O)[nH]c(=O)nc-3n(C[C@H](O)[C@H](O)[C@H](O)CO)c2cc1C [riboflavin]
